From patent US10106544B2, “1,2-dihydro-3H-pyrrolo[1,2-C]imidazol-3-one derivatives and their use as antibacterial agents” (priority 2014, dated 2018)
Converted amounts (≈) assume the structure as drawn. Where two headings read alike, the source gives them in different places.

How the values were obtained:
Assay type in all cases: cell-based
[1] = tested on: E. coli ATCC25922; test: Bacterial growth minimal inhibitory concentration (microdilution, cation-adjusted Mueller-Hinton Broth); settings: for MIC: Escherichia coli
How it was run: (§1)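 Broth microdilution in cation-adjusted Mueller-Hinton Broth per CLSI M7-A7, MIC in mg/L. K. pneumoniae A-651 is multiply resistant, including to quinolones. E. coli ATCC25922 and P. aeruginosa ATCC27853 are quinolone-sensitive.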

[2] = tested on: K. pneumoniae A-651; test: as above; settings: for MIC: Klebsiella pneumoniae
How it was run: as §1

[3] = tested on: P. aeruginosa ATCC27853; test: as above; settings: for MIC: Pseudomonas aeruginosa; for MIC for P. aeruginosa ATCC27853: quinolone-sensitive strain
How it was run: as §1

[4] = tested on: wild-type E. coli A-1261; test: MIC against wild-type E. coli A-1261 with or without alkaline phosphatase or esterase; settings: Escherichia coli
Method: Minimal Inhibitory Concentrations (MICs; mg/L) were determined in cation-adjusted Mueller-Hinton Broth by a microdilution method following the description given in “Methods for Dilution Antimicrobial Susceptibility Tests for Bacteria that Grow Aerobically”, Approved standard, 7th ed., a Clinical and Laboratory Standards Institute (CLSI) Document M7-A7, Wayne, Pa., USA (2006).
The compounds of Examples 37, 50, 51 and 74 were tested against wild-type E. coli A-1261 in the absence of alkaline phosphatase or esterase, in the presence of an alkaline phosphatase and in the presence of an esterase. The corresponding antibacterial test results are given in Table 2 hereafter (MICs in mg/L).

[5] = ATCC25922, quinolone-sensitive strain, read-out: MIC for E. coli ATCC25922
[6] = A651, multiply-resistant strain (in particular quinolone-resistant), read-out: MIC for K. Pneumoniae A-651
[7] = ATCC27853, quinolone-sensitive strain, read-out: MIC for P. aeruginosa ATCC27853
[8] = read-out: MIC for E. coli A-1261 In the absence of alkaline phosphatase or esterase
[9] = read-out: MIC for E. coli A-1261 In the presence of an alkaline phosphatase (2 i.U./mL)
[10] = read-out: MIC for E. coli A-1261 In the presence of an esterase (10 i.U./mL)
[11] = multiply-resistant strain (in particular quinolone-resistant)

MIC [1, 5] [µg/mL]	MIC [2, 6] [µg/mL]	MIC [3, 7] [µg/mL]	SMILES	other results
0.5	1	4	CN(C)CC(=O)OCC1(c2ccc(C#Cc3cc4n(c3)C(=O)N(CC[C@](C)(C(=O)NO)S(C)(=O)=O)C4)cc2)CC1.Cl [Example 37, (R)-(1-(4-((2-(4-(hydroxyamino)-3-methyl-3-(methylsulfonyl)-4-oxobutyl)-3-oxo-2,3-dihydro-1H-pyrrolo[1,2-c]imidazol-6-yl)ethynyl)phenyl)cyclopropyl)methyl dimethylglycinate hydrochloride]	MIC [4, 8]: 0.25 µg/mL; MIC [4, 9]: 0.125 µg/mL; MIC [4, 10]: 0.25 µg/mL
–	–	–	CN(C)CC(=O)OCC1(C#CC#Cc2cc3n(c2)C(=O)N(CC[C@](C)(C(=O)NO)S(C)(=O)=O)C3)CC1.Cl [Example 50, (R)-(1-((2-(4-(hydroxyamino)-3-methyl-3-(methylsulfonyl)-4-oxobutyl)-3-oxo-2,3-dihydro-1H-pyrrolo[1,2-c]imidazol-6-yl)buta-1,3-diyn-1-yl)cyclopropyl)methyl dimethylglycinate hydrochloride]	MIC [4, 8]: 2 µg/mL; MIC [4, 9]: 1 µg/mL; MIC [4, 10]: 0.5 µg/mL
–	–	–	C[C@@](CCN1Cc2cc(C#CC#CC3(COP(=O)(O)O)CC3)cn2C1=O)(C(=O)NO)S(C)(=O)=O [Example 51, (R)-(1-((2-(4-(hydroxyamino)-3-methyl-3-(methylsulfonyl)-4-oxobutyl)-3-oxo-2,3-dihydro-1H-pyrrolo[1,2-c]imidazol-6-yl)buta-1,3-diyn-1-yl)cyclopropyl)methyl dihydrogen phosphate]	MIC [4, 8]: > 16 µg/mL; MIC [4, 9]: 0.5 µg/mL; MIC [4, 10]: 16 µg/mL
0.125 (≈ 0.262 µM)	0.125 (≈ 0.262 µM)	1 (≈ 2.1 µM)	C[C@@](CCN1Cc2cc(C#Cc3ccc(C4(N)CC4)s3)cn2C1=O)(C(=O)NO)S(C)(=O)=O [Example 68, (R)-4-(6-((5-(1-aminocyclopropyl)thiophen-2-yl)ethynyl)-3-oxo-1H-pyrrolo[1,2-c]imidazol-2(3H)-yl)-N-hydroxy-2-methyl-2-(methylsulfonyl)butanamide]	–
0.5 (≈ 1.03 µM)	2 (≈ 4.11 µM)	2 (≈ 4.11 µM)	C[C@@](CCN1Cc2cc(C#Cc3ccc(C4(N)COC4)cc3)cn2C1=O)(C(=O)NO)S(C)(=O)=O [Example 69, (R)-4-(6-((4-(3-aminooxetan-3-yl)phenyl)ethynyl)-3-oxo-1H-pyrrolo[1,2-c]imidazol-2(3H)-yl)-N-hydroxy-2-methyl-2-(methylsulfonyl)butanamide]	–
1 (≈ 1.99 µM)	2 (≈ 3.99 µM)	2 (≈ 3.99 µM)	C[C@@](CCN1Cc2cc(C#Cc3ccc(C4(CO)COC4)cc3)cn2C1=O)(C(=O)NO)S(C)(=O)=O [Example 70, (R)-N-hydroxy-4-(6-((4-(3-(hydroxymethyl)oxetan-3-yl)phenyl)ethynyl)-3-oxo-1H-pyrrolo[1,2-c]imidazol-2(3H)-yl)-2-methyl-2-(methylsulfonyl)butanamide]	–
0.25 (≈ 0.512 µM)	1 (≈ 2.05 µM)	1 (≈ 2.05 µM)	C[C@@](CCN1Cc2cc(C#Cc3ccc(NC(=O)CO)cc3)cn2C1=O)(C(=O)NO)S(C)(=O)=O [Example 71, (R)-N-hydroxy-4-(6-((4-(2-hydroxyacetamido)phenyl)ethynyl)-3-oxo-1H-pyrrolo[1,2-c]imidazol-2(3H)-yl)-2-methyl-2-(methylsulfonyl)butanamide]	–
–	–	–	C[C@@](CCN1Cc2cc(C#Cc3ccc(C4(N)CC4)cc3)cn2C1=O)(C(=O)NO)S(C)(=O)=O [Example 72, (R)-4-(6-((4-(1-aminocyclopropyl)phenyl)ethynyl)-3-oxo-1H-pyrrolo[1,2-c]imidazol-2(3H)-yl)-N-hydroxy-2-methyl-2-(methylsulfonyl)butanamide]	MIC ([1]; ATCC25922, read-out: MIC for E. coli ATCC25922): 0.125 µg/mL (≈ 0.266 µM); MIC ([2]; A651, read-out: MIC for K. Pneumoniae A-651): 0.25 µg/mL (≈ 0.531 µM); MIC ([3]; ATCC27853, read-out: MIC for P. aeruginosa ATCC27853): 0.5 µg/mL (≈ 1.06 µM)
–	–	–	C[C@@](CCN1Cc2cc(C#CC#CC[C@]3(O)C[C@@H](CO)C3)cn2C1=O)(C(=O)NO)S(C)(=O)=O [Example 73, (R)-N-hydroxy-4-(6-(5-((1s,3R)-1-hydroxy-3-(hydroxymethyl)cyclobutyl)penta-1,3-diyn-1-yl)-3-oxo-1H-pyrrolo[1,2-c]imidazol-2(3H)-yl)-2-methyl-2-(methylsulfonyl)butanamide]	MIC for E. coli ATCC25922 ([1]; quinolone-sensitive strain): 8 mg/L; MIC for K. Pneumoniae A-651 [2, 11]: 16 mg/L; MIC for P. aeruginosa ATCC27853 [3]: 4 mg/L
–	–	–	C[C@@](CCN1Cc2cc(C#CC#CC3(NC(=O)OCOP(=O)(O)O)CC3)cn2C1=O)(C(=O)NO)S(C)(=O)=O [Example 74, (phosphonooxy)methyl (R)-(1-((2-(4-(hydroxyamino)-3-methyl-3-(methylsulfonyl)-4-oxobutyl)-3-oxo-2,3-dihydro-1H-pyrrolo[1,2-c]imidazol-6-yl)buta-1,3-diyn-1-yl)cyclopropyl)carbamate]	MIC [4, 8]: 4 µg/mL (≈ 6.99 µM); MIC [4, 9]: 0.25 µg/mL; MIC [4, 10]: 4 µg/mL
–	–	–	C[C@@](CCN1Cc2cc(C#CC#CC3(COC(=O)OCOP(=O)(O)O)CC3)cn2C1=O)(C(=O)NO)S(C)(=O)=O [Example 75, (R)-(1-((2-(4-(hydroxyamino)-3-methyl-3-(methylsulfonyl)-4-oxobutyl)-3-oxo-2,3-dihydro-1H-pyrrolo[1,2-c]imidazol-6-yl)buta-1,3-diyn-1-yl)cyclopropyl)methyl((phosphonooxy)methyl)carbonate]	MIC for E. coli ATCC25922 ([1]; quinolone-sensitive strain): 1 mg/L; MIC for K. Pneumoniae A-651 [2, 11]: 2 mg/L; MIC for P. aeruginosa ATCC27853 [3]: 2 mg/L
1 (≈ 2.08 µM)	2 (≈ 4.16 µM)	2 (≈ 4.16 µM)	CC(C)(O)c1ncc(C#Cc2cc3n(c2)C(=O)N(CC[C@](C)(C(=O)NO)S(C)(=O)=O)C3)s1 [Example 76, (R)-N-hydroxy-4-(6-((2-(2-hydroxypropan-2-yl)thiazol-5-yl)ethynyl)-3-oxo-1H-pyrrolo[1,2-c]imidazol-2(3H)-yl)-2-methyl-2-(methylsulfonyl)butanamide]	–
8	16	2	C[C@@](CCN1Cc2cc(C#Cc3ccc(CN4CCC(N)CC4)cc3)cn2C1=O)(C(=O)NO)S(C)(=O)=O.Cl.Cl [Example 77, (R)-4-(6-((4-((4-aminopiperidin-1-yl)methyl)phenyl)ethynyl)-3-oxo-1H-pyrrolo[1,2-c]imidazol-2(3H)-yl)-N-hydroxy-2-methyl-2-(methylsulfonyl)butanamide dihydrochloride]	–
1 (≈ 1.89 µM)	2 (≈ 3.78 µM)	1 (≈ 1.89 µM)	C[C@@](CCN1Cc2cc(C#Cc3ccc(CN4CCC(O)CC4)cc3)cn2C1=O)(C(=O)NO)S(C)(=O)=O [Example 80, (R)-N-hydroxy-4-(6-((4-((4-hydroxypiperidin-1-yl)methyl)phenyl)ethynyl)-3-oxo-1H-pyrrolo[1,2-c]imidazol-2(3H)-yl)-2-methyl-2-(methylsulfonyl)butanamide]	–
8 (≈ 15.6 µM)	16 (≈ 31.2 µM)	2 (≈ 3.89 µM)	C[C@@](CCN1Cc2cc(C#Cc3ccc(N4CCC(N)CC4)cc3)cn2C1=O)(C(=O)NO)S(C)(=O)=O [Example 81, (R)-4-(6-((4-(4-aminopiperidin-1-yl)phenyl)ethynyl)-3-oxo-1H-pyrrolo[1,2-c]imidazol-2(3H)-yl)-N-hydroxy-2-methyl-2-(methylsulfonyl)butanamide]	–
0.5 (≈ 0.957 µM)	1 (≈ 1.91 µM)	1 (≈ 1.91 µM)	C[C@@](CCN1Cc2cc(C#Cc3ccc(CNS(C)(=O)=O)cc3)cn2C1=O)(C(=O)NO)S(C)(=O)=O [Example 82, (R)-N-hydroxy-2-methyl-4-(6-((4-(methylsulfonamidomethyl)phenyl)ethynyl)-3-oxo-1H-pyrrolo[1,2-c]imidazol-2(3H)-yl)-2-(methylsulfonyl)butanamide]	–
0.5 (≈ 1.05 µM)	0.5 (≈ 1.05 µM)	1 (≈ 2.11 µM)	C[C@@](CCN1Cc2cc(C#CC#CC3CN(C4COC4)C3)cn2C1=O)(C(=O)NO)S(C)(=O)=O [Example 83, (R)-N-hydroxy-2-methyl-2-(methylsulfonyl)-4-(6-((1-(oxetan-3-yl)azetidin-3-yl)buta-1,3-diyn-1-yl)-3-oxo-1H-pyrrolo[1,2-c]imidazol-2(3H)-yl)butanamide]	–
